Data: paper PMC11651915, “Small molecule protein assembly modulators with pan-cancer therapeutic efficacy” (Open Biology, 2024)

Assays:
MCF7 = experiment: Eurofins OncoPanel (CellTiter-Glo); type: cell-based; details: Homo sapiens, 72 h, 3 days
SJSA1-OSA = experiment: Eurofins OncoPanel (CellTiter-Glo); type: cell-based; details: Homo sapiens, 72 h, 3 days
COLO 205 = experiment: cells; type: cell-based; details: Homo sapiens, NCI-60, 48 h
MDA-MB-435 = experiment: cells; type: cell-based; details: Homo sapiens, NCI-60, 48 h
IGROV1 = experiment: cells; type: cell-based; details: Homo sapiens, IGROV-1, NCI-60, 48 h
786-0 = experiment: cells; type: cell-based; details: Homo sapiens, NCI-60, 48 h
[1] = test system: BB1 patient biopsy derived cell line (benign adenoma); experiment: BB1 and BB5 adenoma versus carcinoma screen (confocal imaging); type: cell-based, human; details: Homo sapiens, 60 h, percent ChromaLive negative
LNCaP C-33 cells = experiment: Cell growth recovery assay; type: cell-based, human; details: PAV-617 0.3 µM 24 h, PAV-951 0.4 µM 6 h, followed
HL-60(TB) = experiment: cells; details: Homo sapiens, HL-60, 48 h
EKVX = experiment: cells; details: Homo sapiens, 48 h
NCI-H322M = experiment: cells; details: Homo sapiens, 48 h
SF-268 = experiment: cells; details: Homo sapiens, SF-268, 48 h
SF-295 = experiment: cells; details: Homo sapiens, SF-295, 48 h
SNB-75 = experiment: cells; details: Homo sapiens, SNB-75, 48 h
NCI/ADR-RES = experiment: cells; details: Homo sapiens, 48 h
TK-10 = experiment: cells; details: Homo sapiens, TK-10, 48 h
MDA-MB-231/ATCC = experiment: cells; details: Homo sapiens, MDA-MB-231, 48 h
MDA-MB-468 = experiment: cells; details: Homo sapiens, MDA-MB-468, 48 h

`CC(C)CCNc1ncnc2cc(N3CCN(c4ccc5c(NCCC(C)C)ncnc5c4)CC3)ccc12` [PAV-951] gave an IC50 (MCF7) of 1990 nM, an IC50 (SJSA1-OSA) of 724 nM and a GI50 (COLO 205) of 610 nM. The GI50 (MDA-MB-435) was 273 nM, the GI50 (IGROV1) was 287 nM and the GI50 (786-0) was 339 nM. For the same compound, the IC50 [1] was 3.35 µM, the “recovery of cell growth after removal of compound” value (LNCaP C-33 cells) was “did not recover” and the GI50 (HL-60(TB)) was 269 nM. It also gave a GI50 (EKVX) of 1750 nM, a CC50 (EKVX; read-out: LC50) of 6.12 µM and a GI50 (NCI-H322M) of 1200 nM. It also gave a CC50 (NCI-H322M; read-out: LC50) of 5.55 µM, a GI50 (SF-268) of 217 nM and a CC50 (SF-268; read-out: LC50) of 2010 nM. The GI50 (SF-295) was 1640 nM, the CC50 (SF-295; read-out: LC50) was 5.59 µM and the GI50 (SNB-75) was 304 nM. For the same compound, the CC50 (SNB-75; read-out: LC50) was 4.14 µM, the GI50 (NCI/ADR-RES) was 401 nM and the CC50 (NCI/ADR-RES; read-out: LC50) was 4.85 µM. It also gave a GI50 (TK-10) of 2160 nM, a CC50 (TK-10; read-out: LC50) of 6.14 µM and a GI50 (MDA-MB-231/ATCC) of 488 nM. The CC50 (MDA-MB-231/ATCC; read-out: LC50) was 4.42 µM, the GI50 (MDA-MB-468) was 1470 nM and the CC50 (MDA-MB-468; read-out: LC50) was 5.61 µM.
